Measured values: patent EP4177246A1, “FUSED OXAZEPINES AS INHIBITORS OF PEROXIREDOXINS” (Centro Atlántico del Medicamento, SA, priority 2021, dated 2023)

Columns and labels:
[1] = test system: JNK, p38, AKT, ERK1/2, STAT3; assay: Immunoblot of phosphorylated MAPKs, STAT3 and Akt in treated TNBC cells; type: cell-based, human; settings: MDA-MB-231 5 µM, 1 h, BT-549 1 µM, 3 h
Procedure: MDA-MB-231 cells were incubated with compound 24 (5 µM, 1 h), then washed with cold PBS-vanadate (1 mM). The same process was done with BT-549 cells with the exception that the cells were incubated with compound 24 at 1 µM of 3 h. PRDX1 knockdown cells, or compound 24 treated cells, were then lysed with cold RIPA containing protease and phosphatase inhibitors or with a buffer containing 20 mM Tris-HCI, pH = 7, 140 mM NaCl, 50 mM EDTA, 10% glycerol, 1% NP-40, and protease and phosphatase inhibitors. Lysates were centrifuged at 20,000 × g, at 4 °C for 10 min, and supernatants were collected. Protein concentration of lysis extracts was measured by BCA. Electrophoresis sample buffer containing 10% β-mercaptoethanol was added to 60 µg of extracts. In the case of non-reducing electrophoresis, cells were incubated with cold PBS containing 25 mM NEM for 30 min before lysis, and β-mercaptoethanol was omitted in the electrophoresis sample buffer. Samples were separated by sodium dodecyl sulfate - polyacrylamide gel electrophoresis (SDS-PAGE) and transferred onto nitrocellulose or PVDF (polyvinylidene difluoride) membranes. […] Protein bands were visualized with the Immun-Star Western chemiluminescence kit (Bio-rad) using the ChemiDoc XRS System and the image analysis program Quantity One (Bio-Rad). […]

MDA-MB-231 = assay: MTT cell viability assay, MDA-MB-231 cells; type: cell-based, human; settings: Homo sapiens, 48 h drug exposure
In short: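 MDA-MB-231 cells seeded in FBS-supplemented medium, treated after 24 h with compound (10 to 0,01 µM; vehicle 0.05% DMSO) for 48 h at 37 °C. MTT (0.3 mg/ml) added for 2-4 h, formazan dissolved in DMSO, OD read at 595 nm. IC50 from non-linear regression of log concentration vs normalized response.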

HEL 92.1.7 = assay: MTT cell viability assay, HEL cells; type: cell-based; settings: Homo sapiens, 48 h drug exposure
In short: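 Human erythroleukemia HEL 92.1.7 cells, 1000-5000 cells/well in 10% FBS medium, treated 24 h after seeding with compound (10 to 0,01microM) or 0.05% DMSO for 48 h. MTT (0.3 mg/ml) 2-4h at 37 °C, OD 595 nm; IC50 by non-linear regression of log concentration vs normalized response, 3 replicates.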

K562 = assay: MTT cell viability assay, K562 cells; type: cell-based; settings: Homo sapiens, 48 h drug exposure
In short: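 Human CML-derived K562 cells seeded at 1000-5000/well with 10% FBS, treated after 24 h with compound (10 to 0,01 µM) or 0.05% DMSO vehicle for 48 h. MTT (0.3 mg/ml) added 2-4 h at 37 °C, formazan dissolved in DMSO, OD 595 nm; IC50 from non-linear regression, 3 replicates.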

MCF-7 = assay: MTT cell viability assay, MCF-7 cells; type: cell-based; settings: Homo sapiens, MCF7, 48 h drug exposure
Procedure: (§1) Cell viability was assayed by measuring the mitochondrial reduction of the tetrazolium salt 3-(4,5-methyltiazol-2yl)-2,5diphenyl-tetrazolium bromide] (MTT) (Applichen; A2231,0010) [Mosmann T. J Immunol Methods. 1983 16;65(1-2):55-63 (ref. 36); Chuan Y-C et al 2010. Oncogene. 29 (10), 1531-1542 (ref. 37)]. Cells were seeded in 96-well plates in medium (either RPMI, DMEM or McCoys depending on the recommendations from the ATCC) supplemented with 10% FBS (Lonza Cat. N°: 14-502F), 2mM L-Glut (Lonza Cat. N°: BE17-605E) and 100U/ml PEST (Lonza Cat. N°: DE17-605E) at a cell density of 1000-5000 cells/well (96 well plate). Cells were seeded at a density according to their exponential growth phase (normally 1000 to 5000/well). The cells were cultured at 37 °C in the dark in air containing 5% CO2. After 24h either vehicle (0.05% DMSO) or drug were added to culture medium at the indicated concentrations (10 to 0,01microM). After another 48 h, MTT (0.3 mg/ml) was added to cells, followed by incubation for 2-4h at 37 °C in the dark. The medium was then removed and the precipitated formazan was solubilized by the addition of DMSO (200 µL).
(§2) The optical density was measured at 595 nm with the iMark Microplate Reader (BioRad, USA). Data was expressed as percent growth above the level in controls and the results in figures were plotted as means ± SEM of each test point from 3 replicates.
(§3) Statistical analysis. The concentration of drug that provokes 50% reduction of cell viability (IC50) was determined by using non-linear regression analysis and data were fitted to a log concentration vs normalized response curve in GraphPad software v5 (San Diego, CA).

DU-145 = assay: MTT cell viability assay, DU-145 cells; type: cell-based; settings: Homo sapiens, 48 h drug exposure
Procedure: DU-145 [American Type Culture Collection (ATCC) reference number HTB-81]. This a human prostate cancer cell line derived from a metastatic site (brain) of a person.
as §1, §2, §3

PANC-1 = assay: MTT cell viability assay, PANC-1 cells; type: cell-based; settings: Homo sapiens, 48 h drug exposure
Procedure: PANC-1 [American Type Culture Collection (ATCC) reference number CRL-1469]. This a human cancer cell line derived from the pancreas of a person.
as §1, §2, §3

PRDX1 [2] = biological target: T1, PRDX1 (Homo sapiens, UniProt Q06830); assay: Western blot of monomeric/dimeric and oxidized forms of PRDX1 in treated cells; type: cell-based; settings: 1 µM, MDA-MB-231 cells
T1 construct: treatment of untreated MDA-MB-231 cell lysates with a resin coupled to compound 24; endogenous in cells; host or cells: MDA-MB-231 (ATCC HTB-26)
T1 sequence (Q06830 1-199): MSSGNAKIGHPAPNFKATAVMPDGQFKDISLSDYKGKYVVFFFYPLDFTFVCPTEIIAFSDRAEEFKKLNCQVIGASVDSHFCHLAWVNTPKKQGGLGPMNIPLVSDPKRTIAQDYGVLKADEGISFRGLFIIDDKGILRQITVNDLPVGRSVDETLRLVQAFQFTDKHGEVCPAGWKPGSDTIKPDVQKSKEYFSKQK
Procedure: To that end, compound 24 1 µM was added to MDA-MB-231 cells and followed by Western Blot analysis. β-actin was used as control.
Non-reducing and reducing conditions used are those commonly used to assess the status of PRDX1 (see ref. 34 and 35) ref. 35

PRDX1 [3] = biological target: T1, PRDX1; assay: Competitive immunoprecipitation / immunoblot for PRDX1 with compound-coupled resin; type: binding; settings: untreated MDA-MB-231 cell lysates; not trapped from lysates pre-treated with unbound compound
Excerpt: As indicated in the brief description of the figures, the treatment of untreated MDA-MB-231 cell lysates with a resin coupled to compound 24 (24-coupled resin) were subjected to immunoprecipitation analysis for PRDX1 [for the methodology to perform immunoprecipitation and western blot analysis of PRDXs see Am J Physiol Heart Circ Physiol. 2008 Jul; 295(1): H425-H433 (ref. 34); and Oncogene. 2013 November 7; 32(45): 5302-5314 (ref. 35)].

`O=C1C2=C(C(=O)c3c(O)ccc(O)c31)N(c1cccnc1)Cc1ccccc1O2` [Compound 24, 7,10-dihydroxy-12-(pyridin-3-yl)-12,13-dihydrobenzo[f]naphtho[2,3-b][1,4]oxazepine-6,11-dione] was tested, and the “activation of STAT3” value [1] was “a decrease in the activation of STAT3”, the “levels of activated JNK, p38, AKT and ERK1/2” value [1] was “an increase in the levels of activated JNK, p38, AKT and ERK1/2” and the IC50 (MDA-MB-231) was 0.09 µM. For the same compound, the IC50 (HEL 92.1.7) was 0.09 µM, the IC50 (K562) was 0.1 µM and the IC50 (MCF-7) was 1.72 µM. For the same compound, the IC50 (DU-145) was 3.19 µM, the IC50 (PANC-1) was 0.32 µM and the “conversion of PRDX1 monomeric form into dimeric form” value (PRDX1 [2]; non-reducing conditions) was “a rapid conversion of PRDX1 from its basal active monomeric form, into its inactive dimeric form”. For the same compound, the “levels of hyperoxidized PRDX1 (SO2/3-Prdx)” value (PRDX1 [2]; reducing conditions) was “a significant increase in the levels of inactive hyperoxidized 2-cystiene PRDX1” and the “trapping of PRDX1 by compound-coupled resin” value (PRDX1 [3]) was “PRDX1 was clearly trapped by the 24-coupled resin”.
